Legend:
[1] = system: cell lines of the LAR subtype; settings: cited from earlier work
[2] = system: basal-like TNBCs; settings: cell lines and clinically; cited from earlier work
[3] = system: mesenchymal-like cell lines, BT549, Hs578T, and MDA-MB231; assay: Kinase inhibitor screen, CellTiter Glo cell viability, one week; type: cell-based, human; settings: did not reach statistical significance (p = 0.12)
[4] = system: mesenchymal-like TNBC cell lines; settings: cited from earlier work

## CC(O)(CS(=O)(=O)c1ccc(F)cc1)C(=O)Nc1ccc(C#N)c(C(F)(F)F)c1 (stereo not shown) [bicalutamide]
[1]
  selective toxicity by TNBC subtype: selectively toxic to cell lines of the LAR subtype

## N.N.[Cl][Pt][Cl] [cisplatin]
[2]
  toxicity by TNBC subtype: more toxic to basal-like TNBCs

## Cc1nc(Nc2ncc(C(=O)Nc3c(C)cccc3Cl)s2)cc(N2CCN(CCO)CC2)n1 [dasatinib]
[3]
  sensitivity compared to cells of other TNBC subtypes: more sensitive to dasatinib than cells of other TNBC subtypes
[4]
  preferential toxicity by TNBC subtype: preferential toxicity for mesenchymal-like TNBC cell lines

From publication PMC4297247 (Molecular cancer therapeutics, 2014)
